Columns and labels:
[1] = biological target: T1, PDE6D::HA11 fusion protein (Homo sapiens, UniProt O43924); assay: Binding assay with rabbit reticulocyte lysate-produced human PDE6D; details: absence or presence of 10 μM non-immobilized atorvastatin; dot blot
T1 construct: made in house; host or cells: coupled transcription-translation in rabbit reticulocyte lysate (pTNT vector)

rat liver NQO2 = biological target: T2, rat liver NQO2 (Rattus norvegicus, UniProt Q6AY80); assay: Binding curve assay, rat liver NQO2 and atorvastatin bait; details: rat liver extract; semi-quantitative, densitometric scanning of silver-stained gel; read-out: apparent Kd NQO2
T2 construct: from tissue; host or cells: rat liver protein extract
T2 sequence (Q6AY80 1-231): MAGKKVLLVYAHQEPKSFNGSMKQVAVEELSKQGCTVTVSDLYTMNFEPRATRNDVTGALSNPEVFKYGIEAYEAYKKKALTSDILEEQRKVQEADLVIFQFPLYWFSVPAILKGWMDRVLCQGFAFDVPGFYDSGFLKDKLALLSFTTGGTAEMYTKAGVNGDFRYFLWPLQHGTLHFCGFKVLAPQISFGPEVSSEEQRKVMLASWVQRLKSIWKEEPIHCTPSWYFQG

NQO2 = biological target: T3, NQO2 (Rattus norvegicus, UniProt Q6AY80); assay: NQO2 binding pocket competition experiment, rat brain protein extract; details: competitors menadione, quercetin, FAD
T3 construct: from tissue; host or cells: rat liver or brain protein extract
T3 sequence (Q6AY80 1-231): T2 sequence (Q6AY80 1-231)
From the text: The crystal structure of the NQO2 protein has shown that this protein contains three distinct binding pockets. […] The data were obtained by loading the pooled eluates on a SDS-PAGE gel followed by silver staining.

PDE6D [2] = biological target: T4, PDE6D (Homo sapiens, UniProt O43924); assay: Binding assay with E. coli-expressed human PDE6D; design: made in house; host or cells: T7 phage amplified in E. coli; details: 10 μM competitors; dot blot
Method: The full-length coding sequence for human PDE6D was cloned into the pRSET vector for E. coli expression. The PDE6D coding sequence was fused in-frame with a His tag for purification purposes. […] The experiments were performed in duplicate. The data were obtained by loading the eluates from the binding experiment on a dot blot apparatus and subsequent detection with a PDE6D-specific antibody.

HMG-CoA reductase = biological target: T5, HMG-CoA reductase (Homo sapiens, UniProt P04035); assay: enzymatic activity-based HMG-CoA reductase assay; assay type: biochemical; details: concentrations up to 4 μM
T5 sequence (P04035 1-888): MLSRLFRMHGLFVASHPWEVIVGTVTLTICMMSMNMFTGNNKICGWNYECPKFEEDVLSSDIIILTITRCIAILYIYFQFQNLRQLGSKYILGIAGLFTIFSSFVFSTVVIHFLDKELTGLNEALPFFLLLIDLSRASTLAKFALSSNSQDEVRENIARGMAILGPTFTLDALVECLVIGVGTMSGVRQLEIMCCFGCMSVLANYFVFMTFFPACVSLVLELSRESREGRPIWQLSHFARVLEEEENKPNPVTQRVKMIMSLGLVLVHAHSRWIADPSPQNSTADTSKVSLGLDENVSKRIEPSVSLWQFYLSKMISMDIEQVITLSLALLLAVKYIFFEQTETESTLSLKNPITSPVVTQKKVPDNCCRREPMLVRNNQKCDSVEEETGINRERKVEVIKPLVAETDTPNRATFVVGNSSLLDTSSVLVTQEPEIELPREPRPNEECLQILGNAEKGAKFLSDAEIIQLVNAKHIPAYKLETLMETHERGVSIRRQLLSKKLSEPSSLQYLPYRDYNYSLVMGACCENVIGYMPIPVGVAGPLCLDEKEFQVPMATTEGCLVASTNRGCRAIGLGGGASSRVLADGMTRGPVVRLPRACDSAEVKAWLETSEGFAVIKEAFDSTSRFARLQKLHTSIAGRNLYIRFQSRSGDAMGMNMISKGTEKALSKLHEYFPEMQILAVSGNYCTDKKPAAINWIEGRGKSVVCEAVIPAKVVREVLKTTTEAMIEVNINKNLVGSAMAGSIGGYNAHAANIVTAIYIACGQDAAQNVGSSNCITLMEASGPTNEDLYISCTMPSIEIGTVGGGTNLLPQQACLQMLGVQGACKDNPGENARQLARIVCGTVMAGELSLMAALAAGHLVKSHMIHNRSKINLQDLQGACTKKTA
Method: In addition, compounds 781430, 781066, 780780, 780754, 779974, 781456, 782236, 782756, 783250 and 780520 were tested in enzymatic activity-based HMG-CoA reductase assays. […] Blank cells indicate there was no detectable interaction while the “nd” designation indicates the Kd was not determined.

CLB2 = biological target: T6, CLB2 (Homo sapiens, UniProt P22676); assay: T7 phage display competition binding assay (immobilized atorvastatin), CLB2; details: soluble competitor vs atorvastatin-coated affinity matrix; T7 phage displaying CLB2
T6 construct: made in house; host or cells: T7 phage amplified in E. coli
T6 sequence (P22676 1-271): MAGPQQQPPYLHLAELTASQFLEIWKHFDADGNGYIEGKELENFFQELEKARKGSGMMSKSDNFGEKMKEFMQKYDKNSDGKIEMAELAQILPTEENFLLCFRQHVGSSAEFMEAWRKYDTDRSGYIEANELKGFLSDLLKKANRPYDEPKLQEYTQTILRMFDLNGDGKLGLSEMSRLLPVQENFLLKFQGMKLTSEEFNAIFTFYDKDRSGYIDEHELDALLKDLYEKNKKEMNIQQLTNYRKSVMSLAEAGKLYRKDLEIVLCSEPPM
From the text: The T7 phage displaying human PDE6D and CLB2 were obtained following the procedure of WO 01/18234, published Mar. 15, 2001, and U.S. patent applications Ser. No. 10/115,442, “Phage Display Affinity Filter and Forward Screen,” filed Apr. 2, 2002 and Ser. No. 10/214,654, “Uncoupling DNA Insert Propagation and Protein Display,” filed Aug. 7, 2002. […] The phage eluate was then amplified by growth in E. coli and the affinity enrichment procedure was repeated.
The dissociation constants, Kd's, for the interaction between the pyrrole compounds and the novel targets were obtained following the procedure of the co-pending patent applications U.S. Ser. Nos. 10/115,442, “Phage Display Affinity Filter and Forward Screen,” filed Apr. 2, 2002 and 60/480,587, “Protein Family Profiling Tool and Methods,” filed Jun. 20, 2003.

PDE6D [3] = biological target: T4, PDE6D; assay: phage-based competition binding screen at 2 μM; design: made in house; host or cells: phage; details: 2 μM competitor, duplicate
Method: Forty-four molecules were screened for PDE6D binding activity in a standard phage-based competition binding assay, as described in co-pending U.S. patent applications Ser. No. 10/115,442, filed 2 Apr. 2002, and Ser. No. 10/406,797 filed on 2 Apr. 2003 (or PCT International Application PCT/US03/10247 filed 2 Apr. 2003). All compounds were screened in duplicate (duplicate sets of bars) at a concentration of 2 μM.

SMILES	binding of PDE6D::HA11 fusion protein to immobilized atorvastatin bait [1]	Kd (rat liver NQO2) [nM]	NQO2 binding pocket (NQO2)	binding of E. coli expressed human PDE6D to immobilized atorvastatin bait (PDE6D [2])	inhibition of the activity of HMG-CoA reductase (HMG-CoA reductase)	Kd (CLB2) [nM]	fraction of PDE6D-displaying phage bound to immobilized atorvastatin (screen outcome) (PDE6D [3])
CC(C)c1c(C(=O)Nc2ccccc2)c(-c2ccccc2)c(-c2ccc(F)cc2)n1CC[C@@H](O)C[C@@H](O)CC(=O)O [atorvastatin, reference compound]	PDE6D bound to atorvastatin	~500	binds the electron donor NRH pocket	E. coli expressed human PDE6D binds to atorvastatin			
CC(C)c1[nH]c(-c2ccc(F)cc2)c(-c2ccccc2)c1C(=O)Nc1ccccc1 [Compound 781430]					none of the tested compounds inhibited	940	candidate lead compounds
CC(C)c1c(C(=O)Nc2ccccc2)c(-c2ccccc2)c(-c2ccc(F)cc2)n1CC(O)C(O)C(O)C(O)CO (centres unmarked) [Compound 782236]					none of the tested compounds inhibited		

From US7323490B2, “Pyrrole compounds and uses thereof” (Ambit Biosciences Corporation, priority 2003, dated 2008)
